From the supplement of paper PMC10307832

Key:
Assay in all cases: relative viability (nuclei count vs DMSO), 5 days (fraction); higher = more cells survive
NCI-H1437 = test system: NCI-H1437
Method in brief: (§1)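 Five library-drug doses in √10 steps were combined with a fixed anchor-drug dose, or a single drug was given alone, by pin tool to lung cancer cell lines in 1536-well plates the day after seeding. Nuclei were stained and counted after 5 days. Relative viability is the nuclei count in treated wells over that in vehicle wells, taken as the median of duplicate plates.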

NCI-H1648 = test system: NCI-H1648
Method in brief: as §1

NCI-H1355 = test system: NCI-H1355
Method in brief: as §1

NCI-H2342 = test system: NCI-H2342
Method in brief: as §1

LCLC-97TM1 = test system: LCLC-97TM1
Method in brief: as §1

NCI-H596 = test system: NCI-H596
Method in brief: as §1

With `CCNC(=O)c1noc(-c2cc(C(C)C)c(O)cc2O)c1-c1ccc(CN2CCOCC2)cc1` [Luminespib] + CC(=O)c1c(C)c2cnc(Nc3ccc(N4CCNCC4)cn3)nc2n(C2CCCC2)c1=O [Palbociclib] (partner 0.5 µM) the relative viability (NCI-H1437; first compound 0.002 µM) was 0.34, the relative viability (NCI-H1437; first compound 0.006325 µM) was 0.306 and the relative viability (NCI-H1437; first compound 0.02 µM) was 0.309. It also gave a relative viability (NCI-H1437; first compound 0.06325 µM) of 0.273, a relative viability (NCI-H1437; first compound 0.2 µM) of 0.22 and a relative viability (NCI-H1648; first compound 0.002 µM) of 0.216. For the same compound, the relative viability (NCI-H1648; first compound 0.006325 µM) was 0.336, the relative viability (NCI-H1648; first compound 0.02 µM) was 0.246 and the relative viability (NCI-H1648; first compound 0.06325 µM) was 0.361. The relative viability (NCI-H1648; first compound 0.2 µM) was 0.387, the relative viability (NCI-H1355; first compound 0.002 µM) was 0.415 and the relative viability (NCI-H1355; first compound 0.006325 µM) was 0.383. It also gave a relative viability (NCI-H1355; first compound 0.02 µM) of 0.257, a relative viability (NCI-H1355; first compound 0.06325 µM) of 0.367 and a relative viability (NCI-H1355; first compound 0.2 µM) of 0.222. It also gave a relative viability (NCI-H2342; first compound 0.002 µM) of 0.527, a relative viability (NCI-H2342; first compound 0.006325 µM) of 0.527 and a relative viability (NCI-H2342; first compound 0.02 µM) of 0.438. For the same compound, the relative viability (NCI-H2342; first compound 0.06325 µM) was 0.526, the relative viability (NCI-H2342; first compound 0.2 µM) was 0.409 and the relative viability (LCLC-97TM1; first compound 0.002 µM) was 0.214. It also gave a relative viability (LCLC-97TM1; first compound 0.006325 µM) of 0.227, a relative viability (LCLC-97TM1; first compound 0.06325 µM) of 0.248 and a relative viability (LCLC-97TM1; first compound 0.2 µM) of 0.205.

Work on `CCNC(=O)c1noc(-c2cc(C(C)C)c(O)cc2O)c1-c1ccc(CN2CCOCC2)cc1` [Luminespib] + CC(=O)Nc1cccc(-n2c(=O)n(C3CC3)c(=O)c3c(Nc4ccc(I)cc4F)n(C)c(=O)c(C)c32)c1 [Trametinib] (partner 0.02 µM) yielded a relative viability (NCI-H1437; first compound 0.002 µM) of 0.595, a relative viability (NCI-H1437; first compound 0.006325 µM) of 0.52 and a relative viability (NCI-H1437; first compound 0.02 µM) of 0.492. For the same compound, the relative viability (NCI-H1437; first compound 0.06325 µM) was 0.325, the relative viability (NCI-H1437; first compound 0.2 µM) was 0.217 and the relative viability (NCI-H1648; first compound 0.002 µM) was 0.395. For the same compound, the relative viability (NCI-H1648; first compound 0.006325 µM) was 0.492, the relative viability (NCI-H1648; first compound 0.02 µM) was 0.513 and the relative viability (NCI-H1648; first compound 0.06325 µM) was 0.407. The relative viability (NCI-H1648; first compound 0.2 µM) was 0.278, the relative viability (NCI-H1355; first compound 0.002 µM) was 0.421 and the relative viability (NCI-H1355; first compound 0.006325 µM) was 0.445. The relative viability (NCI-H1355; first compound 0.02 µM) was 0.265, the relative viability (NCI-H1355; first compound 0.06325 µM) was 0.396 and the relative viability (NCI-H1355; first compound 0.2 µM) was 0.158. The relative viability (NCI-H596; first compound 0.002 µM) was 0.873, the relative viability (NCI-H596; first compound 0.006325 µM) was 0.835 and the relative viability (NCI-H596; first compound 0.02 µM) was 0.743. The relative viability (NCI-H596; first compound 0.06325 µM) was 0.806, the relative viability (NCI-H596; first compound 0.2 µM) was 0.646 and the relative viability (NCI-H2342; first compound 0.002 µM) was 0.687. For the same compound, the relative viability (NCI-H2342; first compound 0.006325 µM) was 0.881, the relative viability (NCI-H2342; first compound 0.02 µM) was 0.551 and the relative viability (NCI-H2342; first compound 0.06325 µM) was 0.889. For the same compound, the relative viability (NCI-H2342; first compound 0.2 µM) was 0.52, the relative viability (LCLC-97TM1; first compound 0.002 µM) was 0.233 and the relative viability (LCLC-97TM1; first compound 0.006325 µM) was 0.186. The relative viability (LCLC-97TM1; first compound 0.06325 µM) was 0.221 and the relative viability (LCLC-97TM1; first compound 0.2 µM) was 0.166.

In the case of `Cc1cn(-c2cc(NC(=O)c3ccc(C)c(Nc4nccc(-c5cccnc5)n4)c3)cc(C(F)(F)F)c2)cn1` [Nilotinib] + CC(=O)Nc1cccc(-n2c(=O)n(C3CC3)c(=O)c3c(Nc4ccc(I)cc4F)n(C)c(=O)c(C)c32)c1 [Trametinib] (partner 0.02 µM), the relative viability (NCI-H1437; first compound 0.001 µM) is reported as 0.445, the relative viability (NCI-H1437; first compound 0.003162 µM) is reported as 0.541 and the relative viability (NCI-H1437; first compound 0.01 µM) is reported as 0.631. The relative viability (NCI-H1437; first compound 0.03162 µM) was 0.382, the relative viability (NCI-H1437; first compound 0.1 µM) was 0.429 and the relative viability (NCI-H1648; first compound 0.001 µM) was 0.436. It also gave a relative viability (NCI-H1648; first compound 0.003162 µM) of 0.434, a relative viability (NCI-H1648; first compound 0.01 µM) of 0.44 and a relative viability (NCI-H1648; first compound 0.03162 µM) of 0.331. It also gave a relative viability (NCI-H1648; first compound 0.1 µM) of 0.329, a relative viability (NCI-H1355; first compound 0.001 µM) of 0.378 and a relative viability (NCI-H1355; first compound 0.003162 µM) of 0.469. For the same compound, the relative viability (NCI-H1355; first compound 0.01 µM) was 0.44, the relative viability (NCI-H1355; first compound 0.03162 µM) was 0.356 and the relative viability (NCI-H1355; first compound 0.1 µM) was 0.307. It also gave a relative viability (NCI-H596; first compound 0.001 µM) of 0.67, a relative viability (NCI-H596; first compound 0.003162 µM) of 0.883 and a relative viability (NCI-H596; first compound 0.01 µM) of 0.905. It also gave a relative viability (NCI-H596; first compound 0.03162 µM) of 0.668, a relative viability (NCI-H596; first compound 0.1 µM) of 0.712 and a relative viability (NCI-H2342; first compound 0.001 µM) of 0.786. For the same compound, the relative viability (NCI-H2342; first compound 0.003162 µM) was 0.76, the relative viability (NCI-H2342; first compound 0.01 µM) was 0.798 and the relative viability (NCI-H2342; first compound 0.03162 µM) was 0.711. It also gave a relative viability (NCI-H2342; first compound 0.1 µM) of 0.842, a relative viability (LCLC-97TM1; first compound 0.001 µM) of 0.164 and a relative viability (LCLC-97TM1; first compound 0.003162 µM) of 0.18. It also gave a relative viability (LCLC-97TM1; first compound 0.01 µM) of 0.152, a relative viability (LCLC-97TM1; first compound 0.03162 µM) of 0.114 and a relative viability (LCLC-97TM1; first compound 0.1 µM) of 0.227.

Compound `Cc1csc(=NC2CCCCC2)n1/N=C/c1ccc(O)c(O)c1O` [MIM1] + CC(=O)c1c(C)c2cnc(Nc3ccc(N4CCNCC4)cn3)nc2n(C2CCCC2)c1=O [Palbociclib] (partner 0.5 µM) has a relative viability (NCI-H1437; first compound 0.2 µM) of 0.305, a relative viability (NCI-H1437; first compound 0.6325 µM) of 0.35 and a relative viability (NCI-H1437; first compound 2 µM) of 0.312. It also gave a relative viability (NCI-H1437; first compound 6.325 µM) of 0.232, a relative viability (NCI-H1437; first compound 20 µM) of 0.149 and a relative viability (NCI-H1648; first compound 0.2 µM) of 0.262. For the same compound, the relative viability (NCI-H1648; first compound 0.6325 µM) was 0.284, the relative viability (NCI-H1648; first compound 2 µM) was 0.311 and the relative viability (NCI-H1648; first compound 6.325 µM) was 0.276. The relative viability (NCI-H1648; first compound 20 µM) was 0.248, the relative viability (NCI-H1355; first compound 0.2 µM) was 0.391 and the relative viability (NCI-H1355; first compound 0.6325 µM) was 0.371. It also gave a relative viability (NCI-H1355; first compound 2 µM) of 0.41, a relative viability (NCI-H1355; first compound 6.325 µM) of 0.385 and a relative viability (NCI-H1355; first compound 20 µM) of 0.288. The relative viability (NCI-H2342; first compound 0.2 µM) was 0.525, the relative viability (NCI-H2342; first compound 0.6325 µM) was 0.543 and the relative viability (NCI-H2342; first compound 2 µM) was 0.573. The relative viability (NCI-H2342; first compound 6.325 µM) was 0.515, the relative viability (NCI-H2342; first compound 20 µM) was 0.57 and the relative viability (LCLC-97TM1; first compound 0.2 µM) was 0.22. The relative viability (LCLC-97TM1; first compound 0.6325 µM) was 0.22, the relative viability (LCLC-97TM1; first compound 2 µM) was 0.217 and the relative viability (LCLC-97TM1; first compound 6.325 µM) was 0.169. It also gave a relative viability (LCLC-97TM1; first compound 20 µM) of 0.0835.
